In publication PMC12441834, “Highly Potent and Subtype-Selective Sperm-Specific Potassium Channel SLO3 Inhibitors Display High Tissue Exposure in the Murine Female Reproductive Tract” (ACS Pharmacology & Translational Science, 2025):

How the values were obtained:
Endothelin ETB = Endothelin ETB (Homo sapiens, UniProt P24530); test: LeadProfilingScreen radioligand binding
Bradykinin B2 = Bradykinin B2 (Homo sapiens, UniProt P30411); test: LeadProfilingScreen radioligand binding
Adrenergic α2A = Adrenergic α2A (Homo sapiens, UniProt P08913); test: LeadProfilingScreen radioligand binding
Adrenergic α2A, sequence (P08913 whole entry): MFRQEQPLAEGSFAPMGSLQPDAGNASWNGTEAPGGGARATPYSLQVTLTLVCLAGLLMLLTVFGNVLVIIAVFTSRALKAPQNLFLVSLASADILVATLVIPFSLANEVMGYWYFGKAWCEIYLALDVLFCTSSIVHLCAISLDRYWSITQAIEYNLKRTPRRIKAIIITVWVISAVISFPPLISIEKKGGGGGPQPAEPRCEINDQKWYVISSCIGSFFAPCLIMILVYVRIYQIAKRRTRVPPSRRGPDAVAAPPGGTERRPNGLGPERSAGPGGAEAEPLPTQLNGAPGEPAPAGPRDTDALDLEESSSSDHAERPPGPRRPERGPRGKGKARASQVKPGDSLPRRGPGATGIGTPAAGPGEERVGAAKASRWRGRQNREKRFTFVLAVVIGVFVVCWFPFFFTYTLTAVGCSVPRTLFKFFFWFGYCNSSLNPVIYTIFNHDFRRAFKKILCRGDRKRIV

[1] = test system: Calcium Channel L-Type, Benzothiazepine; test: LeadProfilingScreen radioligand binding; set-up: species or system rat
CYP2D6 = CYP2D6 (Homo sapiens, UniProt P10635); test: CYP450 inhibition; format: in vitro ADME; conditions: read-out: CYP450 Inhibition, 2D6
CYP2D6, sequence (P10635 whole entry, species assumed): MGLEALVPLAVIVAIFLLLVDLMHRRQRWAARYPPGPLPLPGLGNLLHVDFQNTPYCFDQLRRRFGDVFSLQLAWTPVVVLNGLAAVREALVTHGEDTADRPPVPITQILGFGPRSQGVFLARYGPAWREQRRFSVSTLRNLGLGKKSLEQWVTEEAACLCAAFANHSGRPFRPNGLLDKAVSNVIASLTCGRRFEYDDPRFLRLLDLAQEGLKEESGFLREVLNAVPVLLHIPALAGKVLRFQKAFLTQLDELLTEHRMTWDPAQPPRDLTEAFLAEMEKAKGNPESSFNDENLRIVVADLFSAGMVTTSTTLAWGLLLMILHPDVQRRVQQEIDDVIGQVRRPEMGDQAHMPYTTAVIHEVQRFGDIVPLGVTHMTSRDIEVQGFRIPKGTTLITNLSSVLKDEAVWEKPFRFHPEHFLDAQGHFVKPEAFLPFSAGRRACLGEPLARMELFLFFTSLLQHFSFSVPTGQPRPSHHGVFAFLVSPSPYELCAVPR

Opiate κ (OP2, KOP) = Opiate κ (OP2, KOP) (Homo sapiens, UniProt P41145); test: LeadProfilingScreen radioligand binding
Opiate κ (OP2, KOP), sequence (P41145 whole entry): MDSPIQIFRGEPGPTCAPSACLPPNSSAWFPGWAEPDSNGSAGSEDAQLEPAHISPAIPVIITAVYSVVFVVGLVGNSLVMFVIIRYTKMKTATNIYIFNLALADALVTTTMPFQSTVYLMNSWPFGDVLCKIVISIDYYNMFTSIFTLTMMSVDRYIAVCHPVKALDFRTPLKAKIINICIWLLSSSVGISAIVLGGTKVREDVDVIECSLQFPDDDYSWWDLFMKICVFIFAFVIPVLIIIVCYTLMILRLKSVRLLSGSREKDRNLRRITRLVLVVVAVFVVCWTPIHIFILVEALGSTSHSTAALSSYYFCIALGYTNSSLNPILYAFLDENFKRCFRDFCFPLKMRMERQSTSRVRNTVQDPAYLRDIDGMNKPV

Thyroid Hormone = test: LeadProfilingScreen radioligand binding; set-up: species or system rat
Histamine H3 = Histamine H3 (Homo sapiens, UniProt Q9Y5N1); test: LeadProfilingScreen radioligand binding
Histamine H3, sequence (Q9Y5N1 whole entry): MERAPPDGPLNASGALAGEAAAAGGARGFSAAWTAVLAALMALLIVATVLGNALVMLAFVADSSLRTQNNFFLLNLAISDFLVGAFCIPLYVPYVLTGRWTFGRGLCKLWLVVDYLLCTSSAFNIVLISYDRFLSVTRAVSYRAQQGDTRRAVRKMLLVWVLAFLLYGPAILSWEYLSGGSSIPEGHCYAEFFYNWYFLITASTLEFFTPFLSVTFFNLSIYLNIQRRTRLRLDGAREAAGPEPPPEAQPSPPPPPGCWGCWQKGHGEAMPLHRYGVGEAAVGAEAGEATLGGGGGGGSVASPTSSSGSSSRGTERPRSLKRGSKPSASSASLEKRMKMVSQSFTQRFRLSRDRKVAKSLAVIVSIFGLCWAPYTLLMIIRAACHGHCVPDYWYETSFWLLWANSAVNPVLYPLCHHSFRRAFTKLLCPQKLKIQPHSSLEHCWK

mouse SLO3 = target: T1, mouse SLO3 (Mus musculus, UniProt O54982); test: Whole-cell recording, mouse SLO3-γ2 expressed in HEK293 cells; format: cell-based; conditions: for IC50: HEK293 cells transfected with murine SLO3-γ2, read-out: mSLO3 IC50; for Hill coefficient: mouse SLO3-γ2 in HEK293 cells
T1 construct: expressed in transfected cells; host or cells: HEK293 (transient, Lipofectamine 3000, with pmaxGFP as marker)
T1 sequence (O54982 1-1121): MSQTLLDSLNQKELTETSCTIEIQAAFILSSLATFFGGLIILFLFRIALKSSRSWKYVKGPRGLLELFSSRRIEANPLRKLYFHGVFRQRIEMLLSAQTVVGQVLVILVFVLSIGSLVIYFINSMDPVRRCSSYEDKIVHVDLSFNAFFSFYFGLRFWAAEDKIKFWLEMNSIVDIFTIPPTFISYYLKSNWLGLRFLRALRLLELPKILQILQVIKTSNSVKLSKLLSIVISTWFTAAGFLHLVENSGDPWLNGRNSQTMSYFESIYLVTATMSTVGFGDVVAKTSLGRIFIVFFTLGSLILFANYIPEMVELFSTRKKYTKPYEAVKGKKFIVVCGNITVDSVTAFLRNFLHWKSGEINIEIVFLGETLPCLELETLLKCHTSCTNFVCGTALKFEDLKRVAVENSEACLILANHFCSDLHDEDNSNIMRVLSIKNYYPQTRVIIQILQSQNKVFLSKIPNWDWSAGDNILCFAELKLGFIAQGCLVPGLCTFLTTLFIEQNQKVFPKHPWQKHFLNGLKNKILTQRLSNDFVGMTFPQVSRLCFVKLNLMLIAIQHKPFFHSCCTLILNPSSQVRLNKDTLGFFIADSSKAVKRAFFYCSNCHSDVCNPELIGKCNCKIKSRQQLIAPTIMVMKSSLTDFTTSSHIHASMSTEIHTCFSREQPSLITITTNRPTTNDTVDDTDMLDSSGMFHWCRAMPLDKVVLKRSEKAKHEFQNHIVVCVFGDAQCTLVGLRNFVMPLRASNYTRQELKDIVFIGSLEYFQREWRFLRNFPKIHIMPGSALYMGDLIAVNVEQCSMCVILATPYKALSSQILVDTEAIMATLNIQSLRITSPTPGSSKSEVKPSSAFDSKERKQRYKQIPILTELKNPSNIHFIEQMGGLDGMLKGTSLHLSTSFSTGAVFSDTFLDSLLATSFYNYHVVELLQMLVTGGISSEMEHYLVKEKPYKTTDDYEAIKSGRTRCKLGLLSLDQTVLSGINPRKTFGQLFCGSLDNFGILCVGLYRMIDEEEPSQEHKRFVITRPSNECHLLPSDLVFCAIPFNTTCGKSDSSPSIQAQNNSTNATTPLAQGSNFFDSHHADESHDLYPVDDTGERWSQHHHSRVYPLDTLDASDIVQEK
T1 sequence (Q5M8M9 24-314 partner): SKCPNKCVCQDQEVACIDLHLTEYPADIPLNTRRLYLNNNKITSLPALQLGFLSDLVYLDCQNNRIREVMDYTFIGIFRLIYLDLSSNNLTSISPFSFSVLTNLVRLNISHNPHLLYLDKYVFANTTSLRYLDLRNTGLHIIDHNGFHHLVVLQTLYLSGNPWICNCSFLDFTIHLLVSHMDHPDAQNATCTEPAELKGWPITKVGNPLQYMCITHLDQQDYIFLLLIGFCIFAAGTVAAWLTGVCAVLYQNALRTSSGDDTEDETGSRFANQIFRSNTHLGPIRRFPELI
Method: HEK293 cells were plated at a density of ∼400,000 cells per 40 mm dish the day before transfection. Lipofectamine 3000 transfection reagent (catalog #L3000015; Thermo Fisher Scientific) was used to transfect HEK293 cells following manufacturer’s instructions. Per 40 mm dish, 2.25 μg of mouse SLO3 and its auxiliary subunit γ2 cDNAs (1:1) were added to cell layers that were 70–90% confluent. As a marker for transfection, cells were cotransfected with pmaxGFP, a CMV plasmid expressing green fluorescent protein (Amaxa Biosystems) at 0.2 μg per dish. After transfection, the cells were incubated at 37 °C with 5% CO2 for 2–4 d until recording.
Voltage-clamp recordings were performed using an Axopatch 200B amplifier (Molecular Devices). Recordings were filtered at 5 kHz with the internal filter of the amplifier and digitized at 50 kHz using a Digidata 1550B digitizer (Molecular Devices). Recording pipettes were pulled from borosilicate glass with tip resistances of 3–8 MΩ after filling with pipette solution containing (in mM): 140 KMES, 1 EGTA, 10 HEPES, pH 7.4 with KOH. Bath solutions contained (in mM): 135 NaMES, 5 KMES, 2 MgCl2, and 10 HEPES, pH 7.4 with NaOH. Experiments were performed at room temperature (∼22 °C). Whole-cell currents were evoked from a holding potential of −60 mV in steps from −80 to +100 mV in 10 mV increments. Test compounds were prepared daily from a 10 mM stock solution (in DMSO).
Data were analyzed with a pClamp 10.6 (Molecular Devices). VU6047606 and VU6032735 inhibition dose–response relationships were fit by the Hill equation in OriginPro 7.5 (OriginLab Corporation): R=1/1+(C/IC50)^n+Ioff , in which R is fractional unblock, C is compound concentration, IC50 is the half inhibition concentration, n is the Hill coefficient, and I off is an offset item for leak current. Error bars in the figures represent the SDs. Each data point is averaged from at least 5 measurements. Curve-fitting results are reported as the fitted values with standard error, which was estimated by OriginPro according to the Error Propagation formula.

Glutamate, NMDA, Agonism = test: LeadProfilingScreen radioligand binding; set-up: species or system rat
Adrenergic α1A = Adrenergic α1A (Homo sapiens, UniProt P35348); test: LeadProfilingScreen radioligand binding
Adrenergic α1A, sequence (P35348 whole entry): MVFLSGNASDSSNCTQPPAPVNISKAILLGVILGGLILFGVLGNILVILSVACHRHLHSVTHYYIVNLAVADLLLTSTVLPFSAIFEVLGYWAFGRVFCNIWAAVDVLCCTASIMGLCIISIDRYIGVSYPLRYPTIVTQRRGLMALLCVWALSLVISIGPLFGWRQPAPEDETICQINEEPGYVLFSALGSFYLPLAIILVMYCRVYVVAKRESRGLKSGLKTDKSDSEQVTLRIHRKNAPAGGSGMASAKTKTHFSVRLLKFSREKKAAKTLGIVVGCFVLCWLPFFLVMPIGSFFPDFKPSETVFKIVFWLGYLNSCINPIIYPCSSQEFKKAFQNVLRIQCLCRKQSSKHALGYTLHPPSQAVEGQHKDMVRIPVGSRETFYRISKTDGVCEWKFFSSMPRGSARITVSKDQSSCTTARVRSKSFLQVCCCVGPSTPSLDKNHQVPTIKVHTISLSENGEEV

Bradykinin B2, sequence (P30411 whole entry): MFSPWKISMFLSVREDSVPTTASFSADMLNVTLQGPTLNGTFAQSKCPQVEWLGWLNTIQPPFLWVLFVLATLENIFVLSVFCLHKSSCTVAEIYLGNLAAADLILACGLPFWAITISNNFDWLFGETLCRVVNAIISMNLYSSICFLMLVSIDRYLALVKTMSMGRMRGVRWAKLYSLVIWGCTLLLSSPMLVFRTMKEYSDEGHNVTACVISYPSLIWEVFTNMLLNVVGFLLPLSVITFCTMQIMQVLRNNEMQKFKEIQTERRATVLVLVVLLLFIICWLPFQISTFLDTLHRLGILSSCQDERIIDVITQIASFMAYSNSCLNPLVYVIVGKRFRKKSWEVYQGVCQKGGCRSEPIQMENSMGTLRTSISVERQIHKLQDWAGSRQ
Endothelin ETB, sequence (P24530 27-442): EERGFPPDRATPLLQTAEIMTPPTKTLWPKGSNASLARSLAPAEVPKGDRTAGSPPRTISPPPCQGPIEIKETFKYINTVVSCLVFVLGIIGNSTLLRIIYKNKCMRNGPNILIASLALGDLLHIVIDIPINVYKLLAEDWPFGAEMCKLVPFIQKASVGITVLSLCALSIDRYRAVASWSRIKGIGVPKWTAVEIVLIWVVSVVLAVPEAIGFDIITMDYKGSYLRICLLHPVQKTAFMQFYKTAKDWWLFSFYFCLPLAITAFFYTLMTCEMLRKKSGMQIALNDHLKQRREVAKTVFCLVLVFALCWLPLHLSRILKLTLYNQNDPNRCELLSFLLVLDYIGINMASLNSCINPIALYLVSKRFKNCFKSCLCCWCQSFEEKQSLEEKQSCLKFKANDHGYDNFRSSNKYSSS

O=C(c1ccc(OCc2ccc(OC(F)(F)F)cc2)cc1)N1CCN(c2ccc(C(F)(F)F)cn2)CC1 [VU6032735]
inhibition at 10 µM (Endothelin ETB): 1% | inhibition at 10 µM (Bradykinin B2): -1% | inhibition at 10 µM (Adrenergic α2A): -3% | % inhibition at 10 μM [1]: 67% | IC50 (CYP2D6): > 30 µM | inhibition at 10 µM (Opiate κ (OP2, KOP)): -16% | % inhibition at 10 μM (Thyroid Hormone): 4% | inhibition at 10 µM (Histamine H3): -16% | IC50 (mouse SLO3): 0.73 µM | fold more potent than VU6047606 on mouse SLO3 (mouse SLO3; HEK293 cells, mSLO3-γ2): ~1.6 fold | Hill coefficient (mouse SLO3): 1.03 ± 0.02 | % inhibition at 10 μM (Glutamate, NMDA, Agonism): -8% | inhibition at 10 µM (Adrenergic α1A): -1%

Cc1cc(Cl)cc2sc(O[C@H]3CCN(C(=O)CCCS(=O)(=O)c4cccc(Br)c4)C[C@H]3F)nc12 [VU6047606]
inhibition at 10 µM (Endothelin ETB): 9% | inhibition at 10 µM (Bradykinin B2): 4% | inhibition at 10 µM (Adrenergic α2A): -4% | % inhibition at 10 μM [1]: 49% | IC50 (CYP2D6): > 30 µM | inhibition at 10 µM (Opiate κ (OP2, KOP)): -13% | % inhibition at 10 μM (Thyroid Hormone): 12% | inhibition at 10 µM (Histamine H3): 11% | IC50 (mouse SLO3): 1.15 µM | Hill coefficient (mouse SLO3): 0.83 ± 0.19 | fold less potent on murine SLO3 than on human SLO3 (mouse SLO3; mouse versus human SLO3): ~7 fold | % inhibition at 10 μM (Glutamate, NMDA, Agonism): -18% | inhibition at 10 µM (Adrenergic α1A): 4%
